# In patent publication US6355799B1, “Substituted benzene compounds, process for their preparation, and herbicidal and defoliant compositions containing them” (ISK Americas Incorporated, priority 1997, dated 2002):
# Key:
# Format in all cases: in vivo
# [1] = system: sicklepod (Cassia obtusifolia, CASOB); experiment: Pre-emerge test, greenhouse herbicide activity screening; settings: for Pre-emerge Herbicidal Activity CASOB (phytotoxicity rating, scale 0-100): rated 14 days after application, 0 = no damage, 100 = complete death
# Procedure, shortened: (§1)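 Compounds in acetone were track-sprayed at 187 l/ha, 15–1000 g ai/ha, onto sandy loam pots. Pre-emerge seeds were sown one day before spraying, with surface watering afterwards. Post-emerge plants were at the 2–3 leaf stage and sprayed with 0.25% v/v non-ionic surfactant. Injury was rated 0–100 at 14 days.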
# [2] = system: green foxtail (Setaria viridis, SETVI); experiment: as above; settings: for Pre-emerge Herbicidal Activity SETVI (phytotoxicity rating, scale 0-100): rated 14 days after application, 0 = no damage, 100 = complete death
# Procedure, shortened: as §1
# [3] = system: common ragweed (Ambrosia artemisizfolia L., AMBEL); experiment: as above; settings: for Pre-emerge Herbicidal Activity AMBEL: phytotoxicity rating 0-100, 14 days after application; for Pre-emerge Herbicidal Activity AMBEL (phytotoxicity rating, scale 0-100): rated 14 days after application, 0 = no damage, 100 = complete death
# Procedure, shortened: as §1
# [4] = system: ivyleaf morningglory (Ipomoea hederacea, IPOHE); experiment: as above; settings: for Pre-emerge Herbicidal Activity IPOHE (phytotoxicity rating, scale 0-100): rated 14 days after application, 0 = no damage, 100 = complete death
# Procedure, shortened: as §1
# [5] = system: barnyardgrass (Echinochloa crus-galli, ECHCG); experiment: as above; settings: for Pre-emerge Herbicidal Activity ECHCG (phytotoxicity rating, scale 0-100): rated 14 days after application, 0 = no damage, 100 = complete death
# Procedure, shortened: as §1
# [6] = system: johnsongrass (Sorghum halepense, SORHA); experiment: as above; settings: for Pre-emerge Herbicidal Activity SORHA (phytotoxicity rating, scale 0-100): rated 14 days after application, 0 = no damage, 100 = complete death
# Procedure, shortened: as §1
# [7] = system: lambsquarters (Chenopodium album, CHEAL); experiment: as above; settings: for Pre-emerge Herbicidal Activity CHEAL (phytotoxicity rating, scale 0-100): rated 14 days after application, 0 = no damage, 100 = complete death
# Procedure, shortened: as §1
# [8] = system: large crabgrass (Digitaria sanguinalis, DIGSA); experiment: as above; settings: for Pre-emerge Herbicidal Activity DIGSA (phytotoxicity rating, scale 0-100): rated 14 days after application, 0 = no damage, 100 = complete death
# Procedure, shortened: as §1
# [9] = system: common ragweed (Ambrosia artemisizfolia L., AMBEL); experiment: Post-emerge test, greenhouse herbicide activity screening; settings: 14 days after application; for phytotoxicity rating AMBEL: post-emerge, rating scale 0-100; for Post-emerge Herbicidal Activity AMBEL: phytotoxicity rating 0-100 (0 no damage, 100 complete death)
# Procedure, shortened: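 Herbicidal damage is scored 0 (none) to 100 (complete plant death) two weeks after a simulated field spray. Rates span 15–1000 g ai/ha, delivered in acetone at 187 l/ha. For post-emergence treatments, plants have 2–3 leaves and the spray carries 0.25% v/v non-ionic surfactant.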
Structure (SMILES),"Pre-emerge Herbicidal Activity CASOB (phytotoxicity rating, scale 0-100) ([1]; 63 g ai/ha)","Pre-emerge Herbicidal Activity CASOB (phytotoxicity rating, scale 0-100) ([1]; 250 g ai/ha)","Pre-emerge Herbicidal Activity SETVI (phytotoxicity rating, scale 0-100) ([2]; 63 g ai/ha)","Pre-emerge Herbicidal Activity SETVI (phytotoxicity rating, scale 0-100) ([2]; 250 g ai/ha)","Pre-emerge Herbicidal Activity AMBEL (phytotoxicity rating, scale 0-100) ([3]; 63 g ai/ha)","Pre-emerge Herbicidal Activity AMBEL (phytotoxicity rating, scale 0-100) ([3]; 250 g ai/ha)","Pre-emerge Herbicidal Activity IPOHE (phytotoxicity rating, scale 0-100) ([4]; 63 g ai/ha)","Pre-emerge Herbicidal Activity IPOHE (phytotoxicity rating, scale 0-100) ([4]; 250 g ai/ha)","Pre-emerge Herbicidal Activity ECHCG (phytotoxicity rating, scale 0-100) ([5]; 63 g ai/ha)","Pre-emerge Herbicidal Activity ECHCG (phytotoxicity rating, scale 0-100) ([5]; 250 g ai/ha)","Pre-emerge Herbicidal Activity SORHA (phytotoxicity rating, scale 0-100) ([6]; 63 g ai/ha)","Pre-emerge Herbicidal Activity SORHA (phytotoxicity rating, scale 0-100) ([6]; 250 g ai/ha)","Pre-emerge Herbicidal Activity CHEAL (phytotoxicity rating, scale 0-100) ([7]; 63 g ai/ha)","Pre-emerge Herbicidal Activity CHEAL (phytotoxicity rating, scale 0-100) ([7]; 250 g ai/ha)","Pre-emerge Herbicidal Activity DIGSA (phytotoxicity rating, scale 0-100) ([8]; 63 g ai/ha)","Pre-emerge Herbicidal Activity DIGSA (phytotoxicity rating, scale 0-100) ([8]; 250 g ai/ha)",Post-emerge Herbicidal Activity AMBEL ([9]; 63 g ai/ha),Post-emerge Herbicidal Activity AMBEL ([9]; 250 g ai/ha),further results
"CNC(=O)N(C(=O)NC)c1c(OC)c(Cl)cc(F)c1-n1c(=O)cc(C(F)(F)F)n(C)c1=O [Compound 3-1, 3-[2-bis(methylaminocarbonyl)amino-4-chloro-6-fluoro-3-methoxyphenyl]-1-methyl-6-trifluoromethyl-2,4(1H, 3H)-pyrimidinedione]",,,,,,,,,,,,,,,,,,,"pest or weed control at 63 g/ha ([1]; Senna obtusifolia, pre-emergence, 336 h, 63 g ai/ha, phytotoxicity rating 0-100, 14 days after application, read-out: Pre-emerge Herbicidal Activity CASOB): 0%; pest or weed control at 250 g/ha ([1]; Senna obtusifolia, pre-emergence, 336 h, 250 g ai/ha, phytotoxicity rating 0-100, 14 days after application, read-out: Pre-emerge Herbicidal Activity CASOB): 0%; pest or weed control at 63 g/ha ([2]; Setaria viridis, pre-emergence, 336 h, 63 g ai/ha, phytotoxicity rating 0-100, 14 days after application, read-out: Pre-emerge Herbicidal Activity SETVI): 0%; pest or weed control at 250 g/ha ([2]; Setaria viridis, pre-emergence, 336 h, 250 g ai/ha, phytotoxicity rating 0-100, 14 days after application, read-out: Pre-emerge Herbicidal Activity SETVI): 0%; Pre-emerge Herbicidal Activity AMBEL ([3]; 63 g ai/ha): 0; Pre-emerge Herbicidal Activity AMBEL ([3]; 250 g ai/ha): 0; pest or weed control at 63 g/ha ([4]; Ipomoea, pre-emergence, 336 h, 63 g ai/ha, phytotoxicity rating 0-100, 14 days after application, read-out: Pre-emerge Herbicidal Activity IPOHE): 0%; pest or weed control at 250 g/ha ([4]; Ipomoea, pre-emergence, 336 h, 250 g ai/ha, phytotoxicity rating 0-100, 14 days after application, read-out: Pre-emerge Herbicidal Activity IPOHE): 0%; pest or weed control at 63 g/ha ([5]; Echinochloa crus-galli, pre-emergence, 336 h, 63 g ai/ha, phytotoxicity rating 0-100, 14 days after application, read-out: Pre-emerge Herbicidal Activity ECHCG): 0%; pest or weed control at 250 g/ha ([5]; Echinochloa crus-galli, pre-emergence, 336 h, 250 g ai/ha, phytotoxicity rating 0-100, 14 days after application, read-out: Pre-emerge Herbicidal Activity ECHCG): 0%; pest or weed control at 63 g/ha ([6]; Sorghum halepense, pre-emergence, 336 h, 63 g ai/ha, phytotoxicity rating 0-100, 14 days after application, read-out: Pre-emerge Herbicidal Activity SORHA): 0%; pest or weed control at 250 g/ha ([6]; Sorghum halepense, pre-emergence, 336 h, 250 g ai/ha, phytotoxicity rating 0-100, 14 days after application, read-out: Pre-emerge Herbicidal Activity SORHA): 0%; pest or weed control at 63 g/ha ([7]; Chenopodium album, pre-emergence, 336 h, 63 g ai/ha, phytotoxicity rating 0-100, 14 days after application, read-out: Pre-emerge Herbicidal Activity CHEAL): 20%; pest or weed control at 250 g/ha ([7]; Chenopodium album, pre-emergence, 336 h, 250 g ai/ha, phytotoxicity rating 0-100, 14 days after application, read-out: Pre-emerge Herbicidal Activity CHEAL): 80%; pest or weed control at 63 g/ha ([8]; Digitaria sanguinalis, pre-emergence, 336 h, 63 g ai/ha, phytotoxicity rating 0-100, 14 days after application, read-out: Pre-emerge Herbicidal Activity DIGSA): 0%; pest or weed control at 250 g/ha ([8]; Digitaria sanguinalis, pre-emergence, 336 h, 250 g ai/ha, phytotoxicity rating 0-100, 14 days after application, read-out: Pre-emerge Herbicidal Activity DIGSA): 0%; phytotoxicity rating AMBEL ([9]; 63 g ai/ha): 0; phytotoxicity rating AMBEL ([9]; 250 g ai/ha): 0"
"COc1c(Cl)cc(F)c(-n2c(=O)cc(C(F)(F)F)n(C)c2=O)c1N(C(C)=O)C(C)=O [Compound 2-2, 3-(4-chloro-2-diacetylamino-6-fluoro-3-methoxyphenyl)-1-methyl-6-trifluoromethyl-2,4(1H, 3H)-pyrimidinedione]",60,90,90,100,40,100,90,100,30,90,60,90,100,100,90,95,0,70,
"Cn1c(C(F)(F)F)cc(=O)n(-c2c(F)cc(Cl)c(O)c2N)c1=O [Compound 1-16, 3-(2-amino-4-chloro-6-fluoro-3-hydroxyphenyl)-1-methyl-6-trifluoromethyl-2,4(1H, 3H)-pyrimidinedione]",0,0,0,0,0,0,0,0,0,0,0,0,0,70,0,0,0,0,
"COc1c(Cl)cc(F)c(-n2c(=O)cc(C(F)(F)F)n(C)c2=O)c1[N+](=O)[O-] [Compound 1-5, 3-(4-chloro-6-fluoro-3-methoxy-2-nitrophenyl)-1-methyl-6-trifluoromethyl-2,4(1H, 3H)-pyrimidinedione]",0,0,0,90,0,20,0,10,0,0,0,20,60,100,0,70,0,30,
